Consider one compound from patent publication US20190314312A1, “COMBINATION THERAPY TO INCREASE ENDOGENOUS NITRIC OXIDE (NO) SYNTHESIS” (Yeda Research and Development Co. Ltd., priority 2016, published 2019).

One assay deals with As1. Put plainly: Immunohistochemistry staining of distal colon sections for As1. Conditions: after colitis induction, vs control mice with colitis, FIG. 3E, 4A. It is filed as in vivo, mouse. Here is the method: Four micrometer paraffin embedded tissue sections were deparaffinized and rehydrated. Endogenous peroxidase was blocked with three percent H2O2 in methanol. Sections undergoing for ALS staining were incubated in cold acetone at −20° C. for 7 minutes. For F4/80 and MAC-2 staining, the present inventors performed antigen retrieval in Tris-EDTA pH 9 and 10 mM citric acid pH 6, for 10 minutes, respectively, using a low boiling program in the microwave to break protein cross-links and unmask antigens. After pre-incubation with 20% normal horse serum and 0.2% Triton X-100 for 1 hour at RT (root temperature), sections were incubated with the primary antibodies as follow; ASL (1:100, Abcam, ab97370, CA, USA); F4/80 (1:50, Serotec, Kidllington, UK); Mac-2 (1:400, Cedarlane, N.C., USA). For fluorescent double-staining of ASL and CD11c the mouse anti ASL (1:50 Santa Cruz Biotechnology, Inc. sc-166787, TX, USA) and rabbit anti CD11c (1:50, ab52632) were used. All antibodies were diluted in PBS containing 2% normal horse serum and 0.2% Triton. Sections were incubated overnight at RT followed by 48 hours at 4° C. Sections were washed three times in PBS and incubated with secondary biotinylated IgG at RT (room temperature) for 1.5 hour, washed three times in PBS and incubated with avidin-biotin Complex (Elite-ABC kit, Vector Lab, CA, USA) at RT for additional 90 minutes followed by DAB (Sigma) reaction. For the fluorescent staining the CY2 conjugated anti mouse and CY3 conjugated streptavidin (1:100 and 1:200 respectively, Jackson ImmunoResearch, West Grove, Pa.) were used.

For a further assay, the system named is C57BL/6J.OlaaHsd mice. Description: DSS-induced colitis, treatment with arginine, citrulline, NaNO2, fisetin or citrulline plus fisetin. It is filed as in vivo, mouse. The procedure: Colitis was induced in Vav1^Cre:As1^f/f mice and CD11c^Cre:As1^f/f with 1.5% DSS and with 0.8% DSS in the Villin^Cre:As1^f/f (wt/vol), (Dextran Sodium Sulfate, MP Biomedicals; molecular weight 36,000-50,000 Da). The powder was dissolved in the drinking water for 6 days, followed by 5 days of supplementing regular water^20. Each group consisted of eight to ten, 8-10 weeks old, male mice. Experiments were repeated at least three times. “f/f”—flox/flox.
Colonoscopy was performed on days 7 and 11 of the experiment to monitor for severity of colitis. For the procedure, a high resolution mouse video endoscopic system was used, which consists of a miniature endoscope (scope 1.9 mm outer diameter), a xenon light source, a triple chip camera, and an air pump to achieve regulated inflation of the mouse bowel (Karl Storz, Tuttlingen, Germany). Mice were anesthetized by the administration of 4-5% of isoflurane in 100% oxygen at a rate of 0.2-0.5 L/min or by the administration of 100 mg/kg Ketamine/10 mg/kg Xylazine mixture IP, after which, the endoscope was introduced via the anus and the colon was carefully insufflated with an air pump before analysis of the colonic mucosa. The endoscopic procedure was viewed on a color monitor and digitally recorded on tape. Colitis was scored according to the Murine endoscopic index of colitis severity (MEICS), considering differences in the thickness of the bowel wall, changes in blood vessel integrity, mucosal surface, stool consistency or the presence of fibrin, scored each between 0 and 3. The cumulative score ranged from 0 (no signs of inflammation) to 15 (signs of severe inflammation)^21.
Mice were treated with 1% (wt/vol) DSS for 6 days, followed by administration of either arginine 1% (wt/vol) solution (Sigma-Aldrich, St. Louis, Mo., catalogue number A8094) in drinking water, citrulline 1% (wt/vol) (L-citrulline, Chem-Impex International), NaNO2 100 mg (Sigma-Aldrich, St. Louis, Mo., catalogue number S2252), or water as control for additional 6 days.
Fisetin was given by intraperitoneal (i.p.) injection (1 mg/animal) in 30 μL of DMSO twice weekly. The control group was injected with 30 μL of DMSO twice weekly. Each group consisted of ten, 8-weeks old, male mice. Experiments were repeated three times.
Histopathology. On the day of sacrifice, colons were removed and their length was measured. Colon was fixed in 2.5% PFA solution overnight at 4° C., then embedded in paraffin, sectioned and stained with H&E. Tissues were examined in a blinded manner by a pathologist and scored on a 0-4 scale based on the parameters of inflammation severity^20.

The subject of assay [1] is lipopolysaccharide (LPS)-stimulated mouse primary peritoneal macrophages. As to conditions: in vitro; cited from earlier work.

For `O=c1c(O)c(-c2ccc(O)c(O)c2)oc2cc(O)ccc12` [fisetin, 3,7, 3′, 4′-tetrahydroxyflavone], the “As1 expression in distal colon sections (intestine, enterocytes)” value in the assay with As1 is on record as “up regulation”; with As1 (listed as fesitin), “upregulated”. For the same compound, in the assay with C57BL/6J.OlaaHsd mice (1% DSS 6 days, then fisetin 1 mg IP twice, citrulline 1% in drinking water or both vs DMSO control, FIG. 4B), the weight loss result is given as “significant weight loss is documented in the control group compared to the treated mice”. Also, the “colitis severity in all parameters” value with C57BL/6J.OlaaHsd mice (fisetin vs control, FIG. 4A-E) is “improved colitis severity in all parameters”. Moreover, the colon length entry in the assay with C57BL/6J.OlaaHsd mice (fisetin, citrulline or both vs DMSO control, FIG. 4D) is reported as “significant longer”. Further, in the assay with C57BL/6J.OlaaHsd mice (fisetin, citrulline or both vs DMSO control, FIG. 4E), the histological score result was “significant reduction”. Besides, the pro-inflammatory cytokine result in assay [1] was “significantly reduces pro-inflammatory cytokine”.
